Test results from paper PMC6138237, “Machine intelligence decrypts β-lapachone as an allosteric 5-lipoxygenase inhibitor” (Chemical Science, 2018).
Where two headings read alike, the source gives them in different places. Blank lines part the entries; values can stand above or below the compound they belong to.

Columns and labels:
5-LO = biological target: T1, 5-LO (Homo sapiens, UniProt P09917); experiment: 5-LO inhibition assay, Cerep (Method A, indirect fluorogenic readout, Rhodamine 123); assay type: biochemical; details: 5-LO
T1 sequence (P09917 1-674): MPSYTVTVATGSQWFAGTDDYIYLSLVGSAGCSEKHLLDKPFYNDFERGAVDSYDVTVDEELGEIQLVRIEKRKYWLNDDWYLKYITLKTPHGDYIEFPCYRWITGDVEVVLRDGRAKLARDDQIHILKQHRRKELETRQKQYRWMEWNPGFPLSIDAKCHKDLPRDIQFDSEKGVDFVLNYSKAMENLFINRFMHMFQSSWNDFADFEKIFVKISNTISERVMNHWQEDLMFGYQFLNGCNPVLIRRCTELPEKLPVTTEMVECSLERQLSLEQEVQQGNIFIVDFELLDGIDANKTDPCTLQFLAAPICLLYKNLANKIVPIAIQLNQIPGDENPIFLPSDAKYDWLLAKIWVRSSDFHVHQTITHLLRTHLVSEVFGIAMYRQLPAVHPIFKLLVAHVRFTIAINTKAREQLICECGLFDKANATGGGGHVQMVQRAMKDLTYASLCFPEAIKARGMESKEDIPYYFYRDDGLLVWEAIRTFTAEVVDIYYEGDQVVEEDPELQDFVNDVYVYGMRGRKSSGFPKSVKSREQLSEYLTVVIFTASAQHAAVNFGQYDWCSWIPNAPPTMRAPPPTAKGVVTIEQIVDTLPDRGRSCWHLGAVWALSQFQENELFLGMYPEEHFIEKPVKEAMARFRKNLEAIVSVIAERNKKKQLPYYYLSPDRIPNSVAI

SIK = SIK (Homo sapiens, UniProt P57059); experiment: ExpresS Diversity Kinase Profile, Cerep (LANCE): SIK; assay type: biochemical; details: control
TRPV1 = TRPV1 (Homo sapiens, UniProt Q8NER1); experiment: TRPV1 functional agonist assay, Cerep (intracellular Ca2+); assay type: cell-based
TRPM8 = biological target: T2, TRPM8 (Homo sapiens, UniProt Q7Z2W7); experiment: TRPM8 functional agonist assay, Cerep (intracellular Ca2+); assay type: cell-based
T2 construct: Cerep, SA (fee-for-service assay) printed G018533 (citation number 33 glued on)

[1] = Dynamic light scattering (colloidal aggregation); assay type: physicochemical; details: 25 °C
EP3 [2] = biological target: T3, EP3 (Homo sapiens, UniProt P43115); experiment: EP3 functional agonist assay, Cerep (impedance)
T3 sequence (P43115 1-390): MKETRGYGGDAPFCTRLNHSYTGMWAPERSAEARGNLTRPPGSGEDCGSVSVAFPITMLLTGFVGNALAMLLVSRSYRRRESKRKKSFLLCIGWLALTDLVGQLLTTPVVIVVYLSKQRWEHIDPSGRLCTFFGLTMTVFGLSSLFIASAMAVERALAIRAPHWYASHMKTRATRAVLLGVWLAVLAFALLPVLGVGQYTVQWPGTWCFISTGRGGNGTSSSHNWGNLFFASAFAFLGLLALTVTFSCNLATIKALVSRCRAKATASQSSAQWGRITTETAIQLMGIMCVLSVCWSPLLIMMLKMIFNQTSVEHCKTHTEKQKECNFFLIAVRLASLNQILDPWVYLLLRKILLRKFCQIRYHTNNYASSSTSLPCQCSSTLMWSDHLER

EP2 = EP2 (Homo sapiens, UniProt P43116); experiment: EP2 functional agonist assay, Cerep (cAMP, HTRF)
EP4 = EP4 (Homo sapiens, UniProt P35408); experiment: EP4 functional agonist assay, Cerep (cAMP, HTRF)
EP1 = biological target: T4, EP1 (Homo sapiens, UniProt P34995); experiment: EP1 functional agonist assay, Cerep (intracellular Ca2+)
T4 sequence (P34995 1-402): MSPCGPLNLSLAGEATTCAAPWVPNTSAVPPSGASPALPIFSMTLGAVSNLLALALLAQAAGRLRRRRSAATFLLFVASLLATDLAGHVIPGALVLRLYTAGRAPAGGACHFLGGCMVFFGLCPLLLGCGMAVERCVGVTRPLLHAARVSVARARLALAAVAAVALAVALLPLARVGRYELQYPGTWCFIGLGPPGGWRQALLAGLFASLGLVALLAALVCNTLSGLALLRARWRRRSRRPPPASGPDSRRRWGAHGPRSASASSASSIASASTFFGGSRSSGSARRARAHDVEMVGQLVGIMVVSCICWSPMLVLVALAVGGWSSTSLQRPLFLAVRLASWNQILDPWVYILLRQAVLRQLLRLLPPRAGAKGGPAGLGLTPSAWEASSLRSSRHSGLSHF

PDE5 = PDE5 (Homo sapiens, UniProt O76074); experiment: Phosphodiesterase 5 inhibition assay, Cerep (scintillation counting); assay type: biochemical; details: PDE5; control
p38α = p38α (Homo sapiens, UniProt Q16539); experiment: ExpresS Diversity Kinase Profile, Cerep (LANCE): p38α; assay type: biochemical; details: control
15-LO-2 = biological target: T5, 15-LO-2 (Homo sapiens, UniProt O15296); experiment: 15-LO-2 inhibition assay, Cerep (Method A, fluorometry); assay type: biochemical; details: control
T5 sequence (O15296 1-676): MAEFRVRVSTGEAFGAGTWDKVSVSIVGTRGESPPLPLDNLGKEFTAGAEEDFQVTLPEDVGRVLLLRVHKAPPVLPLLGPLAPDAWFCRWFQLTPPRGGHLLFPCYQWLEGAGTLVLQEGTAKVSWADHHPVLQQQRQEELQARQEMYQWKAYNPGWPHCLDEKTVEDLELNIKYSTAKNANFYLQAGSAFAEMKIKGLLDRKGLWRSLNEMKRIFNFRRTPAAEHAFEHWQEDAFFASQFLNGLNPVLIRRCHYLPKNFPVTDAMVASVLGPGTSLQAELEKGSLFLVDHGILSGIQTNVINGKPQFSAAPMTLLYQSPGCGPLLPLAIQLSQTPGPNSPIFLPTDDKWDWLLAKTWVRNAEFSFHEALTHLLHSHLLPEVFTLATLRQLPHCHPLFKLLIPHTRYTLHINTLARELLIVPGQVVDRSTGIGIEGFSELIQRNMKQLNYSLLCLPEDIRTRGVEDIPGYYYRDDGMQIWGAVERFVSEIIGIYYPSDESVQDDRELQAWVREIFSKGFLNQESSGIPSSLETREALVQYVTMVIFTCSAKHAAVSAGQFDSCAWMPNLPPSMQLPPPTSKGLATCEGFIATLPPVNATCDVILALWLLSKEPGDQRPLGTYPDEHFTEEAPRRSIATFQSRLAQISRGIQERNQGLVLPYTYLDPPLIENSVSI

EP3 [3] = biological target: T3, EP3; experiment: EP3 functional antagonist assay, Cerep (sulprostone 0.1 nM, impedance); details: EP3 concentration–inhibition curve; n = 2
[4] = n = 2, read-out: % inhibition of control values, Mean
[5] = read-out: % inhibition of control values, 1st measure
[6] = read-out: % inhibition of control values, 2nd measure
[7] = read-out: % of control values, 1st measurement
[8] = read-out: % of control values, 2nd measurement
[9] = read-out: % of control values, Mean

Chain of TRPV1 (Q8NER1 whole entry): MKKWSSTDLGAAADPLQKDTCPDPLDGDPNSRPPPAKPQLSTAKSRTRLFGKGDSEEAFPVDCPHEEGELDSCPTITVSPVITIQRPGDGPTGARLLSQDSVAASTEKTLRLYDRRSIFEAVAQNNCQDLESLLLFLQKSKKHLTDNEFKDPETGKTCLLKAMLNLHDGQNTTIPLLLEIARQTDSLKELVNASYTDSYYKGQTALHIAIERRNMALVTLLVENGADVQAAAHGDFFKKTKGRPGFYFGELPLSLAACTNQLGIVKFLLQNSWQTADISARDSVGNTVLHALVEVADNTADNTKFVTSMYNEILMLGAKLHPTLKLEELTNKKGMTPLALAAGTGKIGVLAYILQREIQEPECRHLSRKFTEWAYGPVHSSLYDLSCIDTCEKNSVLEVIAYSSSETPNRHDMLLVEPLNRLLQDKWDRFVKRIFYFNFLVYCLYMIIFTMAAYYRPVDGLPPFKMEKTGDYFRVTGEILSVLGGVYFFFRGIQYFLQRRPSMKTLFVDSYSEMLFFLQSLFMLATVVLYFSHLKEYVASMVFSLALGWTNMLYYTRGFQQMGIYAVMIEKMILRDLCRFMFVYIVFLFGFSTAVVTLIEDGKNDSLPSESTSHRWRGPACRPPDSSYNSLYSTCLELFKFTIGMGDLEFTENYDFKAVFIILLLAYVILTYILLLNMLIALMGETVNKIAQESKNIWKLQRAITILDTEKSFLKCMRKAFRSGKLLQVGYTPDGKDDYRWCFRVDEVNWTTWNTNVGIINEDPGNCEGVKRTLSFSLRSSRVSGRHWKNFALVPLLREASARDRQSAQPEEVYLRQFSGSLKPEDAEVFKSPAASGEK
Chain of EP2 (P43116 whole entry): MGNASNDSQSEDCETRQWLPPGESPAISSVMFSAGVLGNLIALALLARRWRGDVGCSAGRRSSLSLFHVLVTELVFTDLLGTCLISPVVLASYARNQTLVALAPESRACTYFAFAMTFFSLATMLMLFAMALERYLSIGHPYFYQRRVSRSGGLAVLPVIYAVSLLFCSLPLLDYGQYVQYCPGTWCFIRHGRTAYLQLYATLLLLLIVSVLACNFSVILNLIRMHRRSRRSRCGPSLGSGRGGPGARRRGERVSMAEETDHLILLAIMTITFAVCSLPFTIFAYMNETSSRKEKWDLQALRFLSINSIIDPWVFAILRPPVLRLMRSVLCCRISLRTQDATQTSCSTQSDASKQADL
T2 sequence (Q7Z2W7 whole entry): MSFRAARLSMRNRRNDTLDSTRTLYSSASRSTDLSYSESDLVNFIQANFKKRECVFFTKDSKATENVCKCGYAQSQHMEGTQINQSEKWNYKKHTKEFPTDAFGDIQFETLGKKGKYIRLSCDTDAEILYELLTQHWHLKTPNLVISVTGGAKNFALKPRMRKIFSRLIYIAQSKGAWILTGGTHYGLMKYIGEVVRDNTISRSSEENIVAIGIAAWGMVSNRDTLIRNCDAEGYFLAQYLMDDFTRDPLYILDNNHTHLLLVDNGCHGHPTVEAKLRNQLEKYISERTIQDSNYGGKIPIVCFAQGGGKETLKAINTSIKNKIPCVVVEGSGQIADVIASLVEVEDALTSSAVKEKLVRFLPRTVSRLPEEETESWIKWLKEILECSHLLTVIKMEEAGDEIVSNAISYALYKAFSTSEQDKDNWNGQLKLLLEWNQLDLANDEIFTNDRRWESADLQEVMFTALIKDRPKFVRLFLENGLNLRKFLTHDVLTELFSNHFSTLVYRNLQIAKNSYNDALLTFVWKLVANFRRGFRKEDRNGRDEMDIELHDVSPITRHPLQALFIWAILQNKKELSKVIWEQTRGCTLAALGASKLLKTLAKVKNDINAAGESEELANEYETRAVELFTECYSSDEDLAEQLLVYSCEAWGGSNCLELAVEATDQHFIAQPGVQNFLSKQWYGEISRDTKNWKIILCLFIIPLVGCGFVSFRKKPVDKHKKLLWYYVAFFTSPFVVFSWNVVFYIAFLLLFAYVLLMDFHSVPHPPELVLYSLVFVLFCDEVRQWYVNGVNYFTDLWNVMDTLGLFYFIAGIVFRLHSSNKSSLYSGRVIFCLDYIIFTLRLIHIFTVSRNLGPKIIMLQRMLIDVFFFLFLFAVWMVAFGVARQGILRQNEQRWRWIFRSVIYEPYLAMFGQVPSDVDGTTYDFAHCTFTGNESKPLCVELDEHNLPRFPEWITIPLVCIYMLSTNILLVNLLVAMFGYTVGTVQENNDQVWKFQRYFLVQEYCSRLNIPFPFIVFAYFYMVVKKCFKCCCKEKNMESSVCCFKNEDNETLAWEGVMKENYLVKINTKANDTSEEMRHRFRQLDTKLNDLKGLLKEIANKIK
Chain of EP4 (P35408 whole entry): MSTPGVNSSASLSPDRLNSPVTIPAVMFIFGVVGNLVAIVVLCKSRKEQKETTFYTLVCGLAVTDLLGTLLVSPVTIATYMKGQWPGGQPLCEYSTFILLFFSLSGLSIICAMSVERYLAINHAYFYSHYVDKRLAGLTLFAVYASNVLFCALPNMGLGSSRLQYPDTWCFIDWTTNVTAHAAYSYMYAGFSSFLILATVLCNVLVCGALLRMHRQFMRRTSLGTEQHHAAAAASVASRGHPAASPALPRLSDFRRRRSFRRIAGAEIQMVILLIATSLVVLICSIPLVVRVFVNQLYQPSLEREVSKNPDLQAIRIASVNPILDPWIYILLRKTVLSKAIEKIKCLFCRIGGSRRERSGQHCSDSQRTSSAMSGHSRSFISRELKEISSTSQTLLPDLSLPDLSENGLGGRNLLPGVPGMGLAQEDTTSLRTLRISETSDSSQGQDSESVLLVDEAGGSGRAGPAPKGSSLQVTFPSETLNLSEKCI
Chain of p38α (Q16539 whole entry): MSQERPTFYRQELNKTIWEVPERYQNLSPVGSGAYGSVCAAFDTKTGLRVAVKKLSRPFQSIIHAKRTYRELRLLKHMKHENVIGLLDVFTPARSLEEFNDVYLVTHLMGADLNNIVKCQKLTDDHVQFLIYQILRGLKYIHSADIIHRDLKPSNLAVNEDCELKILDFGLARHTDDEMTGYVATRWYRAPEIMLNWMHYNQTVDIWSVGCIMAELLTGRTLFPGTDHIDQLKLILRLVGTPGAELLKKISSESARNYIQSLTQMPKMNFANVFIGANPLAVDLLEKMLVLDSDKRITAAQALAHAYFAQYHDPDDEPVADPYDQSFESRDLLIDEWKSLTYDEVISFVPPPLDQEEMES
Chain of SIK (P57059 whole entry): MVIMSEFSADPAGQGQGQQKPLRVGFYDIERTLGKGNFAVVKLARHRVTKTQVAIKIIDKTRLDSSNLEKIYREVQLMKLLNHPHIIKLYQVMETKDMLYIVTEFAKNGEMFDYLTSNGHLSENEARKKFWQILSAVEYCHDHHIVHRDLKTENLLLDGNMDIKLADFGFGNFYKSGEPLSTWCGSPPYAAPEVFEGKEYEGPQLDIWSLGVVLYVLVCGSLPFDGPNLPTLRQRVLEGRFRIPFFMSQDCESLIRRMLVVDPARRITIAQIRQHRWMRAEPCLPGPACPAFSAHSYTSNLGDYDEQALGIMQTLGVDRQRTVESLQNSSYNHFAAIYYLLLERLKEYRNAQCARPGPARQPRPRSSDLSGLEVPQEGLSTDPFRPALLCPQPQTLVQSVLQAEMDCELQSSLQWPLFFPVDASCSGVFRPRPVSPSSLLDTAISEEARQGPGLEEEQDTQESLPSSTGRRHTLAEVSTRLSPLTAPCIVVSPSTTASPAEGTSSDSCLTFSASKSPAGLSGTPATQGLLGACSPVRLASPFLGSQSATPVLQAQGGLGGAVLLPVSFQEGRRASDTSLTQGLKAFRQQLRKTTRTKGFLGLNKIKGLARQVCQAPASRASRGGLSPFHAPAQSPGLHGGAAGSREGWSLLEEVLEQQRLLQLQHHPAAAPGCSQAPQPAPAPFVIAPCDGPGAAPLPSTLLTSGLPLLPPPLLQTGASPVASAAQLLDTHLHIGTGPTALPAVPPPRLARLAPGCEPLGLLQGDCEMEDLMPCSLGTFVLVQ

inhibition at 5 µM (5-LO; [4]): 41.1%
inhibition at 5 µM (5-LO; [5]): 47.2%
inhibition at 5 µM (5-LO; [6]): 35.5%
Compound: CC1(C)OC2=C(CC1O)C(=O)C(=O)c1ccccc12 (stereo not drawn) [Compound 5]

inhibition at 5 µM (5-LO; [4]): 66.6%
inhibition at 5 µM (5-LO; [5]): 68.4%
inhibition at 5 µM (5-LO; [6]): 64.8%
Compound: CC(=O)OCC1OC(OCc2cn(C3C4=C(OC3(C)C)c3ccccc3C(=O)C4=O)nn2)C(OC(C)=O)C(OC(C)=O)C1OC(C)=O (stereo not drawn) [Compound 8]

nHill (PDE5): 1.3
Compound: OCCN(CCO)c1nc(N2CCCCC2)c2nc(N(CCO)CCO)nc(N3CCCCC3)c2n1 [Dipyridamole, reference compound]

nHill (p38α): 1.3
Compound: Oc1ccc(-c2nc(-c3ccncc3)c(-c3ccc(F)cc3)[nH]2)cc1 [SB202190, reference compound]

nHill (5-LO; control): 1.5
Compound: CC(Cc1ccc(O)c(O)c1)C(C)Cc1ccc(O)c(O)c1 (stereo not drawn) [NDGA, reference compound]

inhibition at 5 µM (5-LO; [4]): 54.8%
inhibition at 5 µM (5-LO; [5]): 51.5%
inhibition at 5 µM (5-LO; [6]): 58.1%
Compound: CC1(C)OC2=C(C(=O)C(=O)c3ccccc32)C1Nc1ccc(C(=O)/C=C/c2ccccc2)cc1 (stereo not drawn) [Compound 6]

inhibition at 5 µM (5-LO; [4]): 72.8%
inhibition at 5 µM (5-LO; [5]): 77.4%
inhibition at 5 µM (5-LO; [6]): 68.2%
Compound: CC1(C)OC2=C(C(=O)C(=O)c3ccccc32)C1O (stereo not drawn) [Compound 4]

inhibition at 5 µM (5-LO; [4]): 75.4%
inhibition at 5 µM (5-LO; [5]): 73.8%
inhibition at 5 µM (5-LO; [6]): 76.9%
Compound: CC(=O)OCC1OC(OCc2cn(CC3C4=C(OC3(C)C)c3ccccc3C(=O)C4=O)nn2)C(OC(C)=O)C(OC(C)=O)C1OC(C)=O (stereo not drawn) [Compound 7]

The next lines start with the compound.

Compound: CC1(C)OC2=C(C(=O)C(=O)c3ccccc32)C1Nc1ccc(Cl)cc1 (stereo not drawn) [Compound 3]
inhibition at 5 µM (5-LO; [4]): 31.1%
inhibition at 5 µM (5-LO; [5]): 33.1%
inhibition at 5 µM (5-LO; [6]): 29%

Compound: Cn1cc(C2=C(c3cn(CCCSC(=N)N)c4ccccc34)C(=O)NC2=O)c2ccccc21 [Ro-318220, reference compound]
nHill (SIK): 0.7

Compound: CC(C)=CCC1=C(O)C(=O)c2ccccc2C1=O [Lapachol, lapachol, reference compound]
inhibition at 150 µM (5-LO; [4]): 87.1%
inhibition at 150 µM (5-LO; [5]): 84.9%
inhibition at 150 µM (5-LO; [6]): 89.3%
remaining activity at 150 µM (TRPV1; [7]): -13.1%
remaining activity at 150 µM (TRPV1; [8]): -13.1%
remaining activity at 150 µM (TRPV1; [9]): -13.1%
agonist response (% of control) at 150 µM (TRPM8; [7]): -20.4%
agonist response (% of control) at 150 µM (TRPM8; [8]): -20.4%
agonist response (% of control) at 150 µM (TRPM8; [9]): -20.4%
Count rate (kcps) ([1]; 25 µM in H2O + 0.1% DMSO): 250.6 kcps
Count rate (kcps) ([1]; 50 µM in H2O + 0.1% DMSO): 198.4 kcps
Count rate (kcps) ([1]; 100 µM in H2O + 0.1% DMSO): 882.6 kcps
remaining activity at 150 µM (EP3 [2]; [7]): 22.7%
remaining activity at 150 µM (EP3 [2]; [8]): 21.7%
remaining activity at 150 µM (EP3 [2]; [9]): 22.2%
remaining activity at 150 µM (EP2; [7]): -1.2%
remaining activity at 150 µM (EP2; [8]): -2.4%
remaining activity at 150 µM (EP2; [9]): -1.8%
remaining activity at 150 µM (EP4; [7]): 8%
remaining activity at 150 µM (EP4; [8]): 5.8%
remaining activity at 150 µM (EP4; [9]): 6.9%
remaining activity at 150 µM (EP1; [7]): -11.3%
remaining activity at 150 µM (EP1; [8]): -11.3%
remaining activity at 150 µM (EP1; [9]): -11.3%

Compound: CC1(C)OC2=C(C(=O)C(=O)c3ccccc32)C1Nc1ccccc1 (stereo not drawn) [Compound 2]
inhibition at 5 µM (5-LO; [4]): 32.2%
inhibition at 5 µM (5-LO; [5]): 42.2%
inhibition at 5 µM (5-LO; [6]): 22.2%

Compound: N#C/C(=C\c1ccc(O)c(O)c1)C(=O)OCCc1cccs1 [Compound 2-TEDC, reference compound]
nHill (15-LO-2): 0.7

Compound: COc1ccc(Br)cc1S(=O)(=O)NC(=O)/C=C/c1ccccc1Cc1ccc2ccccc2c1 [Compound L798106, reference compound]
IC50 (EP3 [3]): 370 nM
